Assay [1] concerns 320 cl 3 murine hematopoietic cells. Put plainly: Apoptotic markers after 5 Gy irradiation in vitro. It is filed as cell-based. The note with it: 24 hours after irradiation. From the text:
Caspase-3 cleavage and Parpl cleavage illustrated the effects on apoptosis. […] Materials and Methods: Overall Design of Studies (Table 7).

The test system of assay [2] is luc+ bone marrow stromal cells migrating to lungs. Put plainly: Live imaging of luc+ marrow cell migration to irradiated lungs. The class given is in vivo, mouse. The conditions noted are these: MMS350 in drinking water. Here is the method:
C57BL/6NTac mice marrow chimeric luc+ mice were prepared by 9.25 Gy TBI, followed by an injection of 1×10^7 luc+ marrow cells 24 hours later. Subgroups of these chimeric mice were irradiated to 20 Gy to the pulmonary cavity. On day 75 following thoracic irradiation, 50% of the mice were placed on drinking water containing 100 mM MMS350. Mice in the non-chimeric group were injected intraperitoneally on day 100 after irradiation with 1×10^6 luc+ bone marrow stromal cells. Beginning 12 days after cell line injection (112 days after irradiation), the cell line injected mice were imaged at serial timepoints following injection of D-luciferin (Gold Biotechnology, St. Louis, Mo.) using a Xenogen IVIS 200 Imaging system and the bioluminescent signal for each mouse quantitated. As controls for thoracic irradiation, other C57BL/6NTac mice were irradiated to 20 Gy to the right hind limb and injected with luc+ bone marrow stromal cells in the same cell numbers and at the same time points used for the thoracic irradiation experiment. Animals were imaged for luc+ cell migration into irradiated hind limbs using methods identical to that used for pulmonary irradiation groups. The bioluminescence of the mice treated with MMS350 in the drinking water was compared to mice on regular drinking water using a Student T test. […]

Another assay has as its system 32D cl 3 cells. Put plainly: 32D cl 3 colony formation in semisolid medium after irradiation. The class given is cell-based, murine. The note with it: delivered before or after irradiation.

The text below walks through data of patent publication US10251860B2, “Compounds for bone healing” (University of Pittsburgh—Of the Commonwealth System of …, priority 2015, dated 2019).

Entries after “also recorded” stand apart in the source; their conditions may differ.

Regarding `CC1(C[S+]([O-])CC2(C)COC2)COC1` [Compound 3, 3,3′-Sulfinylbis(methylene)bis(3-methyloxetane)], in assay [1] (5 Gy), the “1C3-1/11 conversion (autophagy)” value is “no difference” and the “H2AX phosphorylation (DNA strand break repair)” value is recorded as “more prominent with MMS-350 than JP4-038”. Besides, the “mitochondrial markers of apoptosis” value in assay [1] (one-hour before or 30-minutes after 5 Gy) is reported as “reduced mitochondrial markers of apoptosis”. The “pulmonary migration of luc+ bone marrow stromal cells” value in assay [2] (20 Gy thoracic irradiation, luc+ stromal cell line injected intraperitoneally) is recorded as “significant decrease in migration into the lungs of luc+ cells; also recorded: significant decrease in pulmonary migration of luc+ bone marrow stromal cells”. The “migration of luc+ bone marrow cells into the lungs” value in assay [2] (luc+ marrow chimeric mice, 18 or 20 Gy thoracic irradiation, listed as MMS350) is on record as “significantly reduces migration of bone marrow cells into the lungs; also recorded: reduction of luc+ areas in the thoracic cavity”. Further, the “radiation protection and mitigation of colony forming cells” value with 32D cl 3 cells was “significant effectiveness”.
